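Assay format: 96-well plates, 48-hour exposure. Here, GI50 denotes the concentration required for 50% inhibition of growth. TGI is the concentration that stops growth completely.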
Experiments:
Assay in all cases: NCI-60 cell line screen, 48 h
NCI/ADR-RES ovarian = test system: NCI/ADR-RES ovarian
OVCAR-4 ovarian = test system: OVCAR-4 ovarian
RPMI-8226 leukemia = test system: RPMI-8226 leukemia
HT29 colon = test system: HT29 colon
HCC-2998 colon = test system: HCC-2998 colon
KM12 colon = test system: KM12 colon
ACHN renal = test system: ACHN renal
HCT-15 colon = test system: HCT-15 colon
CAKI-1 renal = test system: CAKI-1 renal
UACC-257 melanoma = test system: UACC-257 melanoma
MDA-MB-231 breast = test system: MDA-MB-231 breast
NCI-H460 lung = test system: NCI-H460 lung
SK-MEL-28 melanoma = test system: SK-MEL-28 melanoma
HOP-92 NSCLC = test system: HOP-92 NSCLC
SK-OV-3 ovarian = test system: SK-OV-3 ovarian
MDA-MB-435 = test system: MDA-MB-435
T-47D breast = test system: T-47D breast
K-562 leukemia = test system: K-562 leukemia
SK-MEL-2 melanoma = test system: SK-MEL-2 melanoma
NCI-H226 lung = test system: NCI-H226 lung
IGROV1 ovarian = test system: IGROV1 ovarian
CCRF-CEM leukemia = test system: CCRF-CEM leukemia
SK-MEL-5 melanoma = test system: SK-MEL-5 melanoma
OVCAR-8 ovarian = test system: OVCAR-8 ovarian
HCT-116 colon = test system: HCT-116 colon
SN12C renal = test system: SN12C renal
EKVX NSCLC = test system: EKVX NSCLC
HOP-62 NSCLC = test system: HOP-62 NSCLC
LOX IMVI melanoma = test system: LOX IMVI melanoma
NCI-H23 lung = test system: NCI-H23 lung
UO-31 renal = test system: UO-31 renal
HS 578T breast = test system: HS 578T breast
HL-60(TB) leukemia = test system: HL-60(TB) leukemia
PC-3 prostate = test system: PC-3 prostate
MCF7 breast = test system: MCF7 breast
A549 NSCLC = test system: A549 NSCLC
SW-620 colon = test system: SW-620 colon
U251 CNS = test system: U251 CNS
SNB-75 CNS = test system: SNB-75 CNS
SR leukemia = test system: SR leukemia
OVCAR-5 ovarian = test system: OVCAR-5 ovarian
COLO 205 colon = test system: COLO 205 colon
M14 melanoma = test system: M14 melanoma
MOLT-4 leukemia = test system: MOLT-4 leukemia
SF-268 CNS = test system: SF-268 CNS
A498 renal = test system: A498 renal
OVCAR-3 ovarian = test system: OVCAR-3 ovarian
SNB-19 CNS = test system: SNB-19 CNS
SF-295 CNS = test system: SF-295 CNS
BT-549 breast = test system: BT-549 breast
786-0 renal = test system: 786-0 renal
RXF 393 renal = test system: RXF 393 renal
SF-539 CNS = test system: SF-539 CNS
MALME-3M melanoma = test system: MALME-3M melanoma
TK-10 renal = test system: TK-10 renal
NCI-H522 lung = test system: NCI-H522 lung
UACC-62 melanoma = test system: UACC-62 melanoma
DU-145 prostate = test system: DU-145 prostate

## COC1=CC(c2ccc[nH]2)=N/C1=C\c1[nH]c(C)c(C(=O)OCc2ccccc2)c1C
NCI/ADR-RES ovarian
  GI50: 0.0714 µM
  TGI: 1.36 µM
OVCAR-4 ovarian
  GI50: 0.0756 µM
  TGI: 5.71 µM
RPMI-8226 leukemia
  GI50: 0.116 µM
  TGI: 1.8 µM
HT29 colon
  GI50: 0.0359 µM
  TGI: 1.27 µM
HCC-2998 colon
  GI50: 0.087 µM
  TGI: 1.71 µM
KM12 colon
  GI50: 0.0525 µM
  TGI: 1.52 µM
ACHN renal
  GI50: 0.081 µM
  TGI: 1.15 µM
HCT-15 colon
  GI50: 0.0333 µM
  TGI: 1.09 µM
CAKI-1 renal
  GI50: 0.0483 µM
  TGI: 1.76 µM
UACC-257 melanoma
  GI50: 0.316 µM
  TGI: 1.83 µM
MDA-MB-231 breast
  GI50: 0.0379 µM
  TGI: 0.325 µM
NCI-H460 lung
  GI50: 0.0476 µM
  TGI: 1.2 µM
SK-MEL-28 melanoma
  GI50: 0.353 µM
  TGI: 1.71 µM
HOP-92 NSCLC
  GI50: 0.0671 µM
  TGI: 0.431 µM
SK-OV-3 ovarian
  GI50: 0.824 µM
  TGI: 4.86 µM
MDA-MB-435
  GI50: 0.0557 µM
  TGI: 1.31 µM
T-47D breast
  GI50: 0.252 µM
  TGI: 1.6 µM
K-562 leukemia
  GI50: 0.0855 µM
  TGI: 1.46 µM
SK-MEL-2 melanoma
  GI50: 0.0445 µM
  TGI: 0.196 µM
NCI-H226 lung
  GI50: 0.132 µM
  TGI: 1.52 µM
IGROV1 ovarian
  GI50: 0.286 µM
  TGI: 9 µM
CCRF-CEM leukemia
  GI50: 0.0404 µM
  TGI: > 28.3 µM
SK-MEL-5 melanoma
  GI50: 0.0476 µM
  TGI: 0.177 µM
OVCAR-8 ovarian
  GI50: 0.11 µM
  TGI: 1.75 µM
HCT-116 colon
  GI50: 0.0321 µM
  TGI: 1.16 µM
SN12C renal
  GI50: 0.0849 µM
  TGI: 1.88 µM
EKVX NSCLC
  GI50: 0.206 µM
  TGI: 3.64 µM
HOP-62 NSCLC
  GI50: 0.314 µM
  TGI: 2.77 µM
LOX IMVI melanoma
  GI50: 0.0189 µM
  TGI: 0.042 µM
NCI-H23 lung
  GI50: 0.141 µM
  TGI: 1.74 µM
UO-31 renal
  GI50: 0.144 µM
  TGI: 0.336 µM
HS 578T breast
  GI50: 0.0804 µM
  TGI: 0.662 µM
HL-60(TB) leukemia
  GI50: 0.328 µM
  TGI: 20.2 µM
PC-3 prostate
  GI50: 0.112 µM
  TGI: 20.6 µM
MCF7 breast
  GI50: 0.0894 µM
  TGI: 0.836 µM
A549 NSCLC
  GI50: 0.0826 µM
  TGI: 4.68 µM
SW-620 colon
  GI50: 0.0346 µM
  TGI: 1.21 µM
U251 CNS
  GI50: 0.0616 µM
  TGI: 1.26 µM
SNB-75 CNS
  GI50: 0.127 µM
  TGI: 0.632 µM
SR leukemia
  GI50: 0.0405 µM
  TGI: 0.885 µM
OVCAR-5 ovarian
  GI50: 0.211 µM
  TGI: 1.99 µM
COLO 205 colon
  GI50: 0.165 µM
  TGI: 1.48 µM
M14 melanoma
  GI50: 0.0448 µM
  TGI: 0.817 µM
MOLT-4 leukemia
  GI50: 0.0513 µM
  TGI: 4.61 µM
SF-268 CNS
  GI50: 0.11 µM
  TGI: 1.94 µM
A498 renal
  GI50: 0.169 µM
  TGI: 1.02 µM
OVCAR-3 ovarian
  GI50: 0.0621 µM
  TGI: 0.645 µM
SNB-19 CNS
  GI50: 0.606 µM
  TGI: 29.2 µM
SF-295 CNS
  GI50: 0.17 µM
  TGI: 0.827 µM
BT-549 breast
  GI50: 0.253 µM
  TGI: 3.46 µM
786-0 renal
  GI50: 0.0666 µM
  TGI: 1.08 µM
RXF 393 renal
  GI50: 0.116 µM
  TGI: 1.41 µM
SF-539 CNS
  GI50: 0.111 µM
  TGI: 1.54 µM
MALME-3M melanoma
  GI50: 0.495 µM
  TGI: 2.1 µM
TK-10 renal
  GI50: 0.0854 µM
  TGI: 1.91 µM
NCI-H522 lung
  GI50: 0.0968 µM
  TGI: 1.15 µM
UACC-62 melanoma
  GI50: 0.0579 µM
  TGI: 0.193 µM
DU-145 prostate
  GI50: 0.0917 µM
  TGI: 1.92 µM

## Cc1nc2sccn2c1/C=C1/C(=O)Nc2ccccc21
NCI/ADR-RES ovarian
  GI50: 3.51 µM
  TGI: > 51 µM
OVCAR-4 ovarian
  GI50: > 29.6 µM
  TGI: > 100 µM
RPMI-8226 leukemia
  GI50: 7.16 µM
  TGI: > 100 µM
HT29 colon
  GI50: 2.81 µM
  TGI: > 100 µM
HCC-2998 colon
  GI50: 1.13 µM
  TGI: 27.2 µM
KM12 colon
  GI50: 0.349 µM
  TGI: > 100 µM
ACHN renal
  GI50: 8.29 µM
  TGI: > 100 µM
HCT-15 colon
  GI50: 2.46 µM
  TGI: > 100 µM
CAKI-1 renal
  GI50: 2.98 µM
  TGI: > 100 µM
UACC-257 melanoma
  GI50: > 100 µM
  TGI: > 100 µM
MDA-MB-231 breast
  GI50: 4.53 µM
  TGI: > 82.5 µM
NCI-H460 lung
  GI50: 5.05 µM
  TGI: > 100 µM
SK-MEL-28 melanoma
  GI50: > 28.5 µM
  TGI: > 100 µM
HOP-92 NSCLC
  GI50: 17.9 µM
  TGI: > 100 µM
SK-OV-3 ovarian
  GI50: 24 µM
  TGI: > 93.3 µM
MDA-MB-435
  GI50: 0.582 µM
  TGI: 11 µM
T-47D breast
  GI50: 0.499 µM
  TGI: > 100 µM
K-562 leukemia
  GI50: > 100 µM
  TGI: > 100 µM
SK-MEL-2 melanoma
  GI50: 5.73 µM
  TGI: > 100 µM
NCI-H226 lung
  GI50: 23.9 µM
  TGI: > 100 µM
IGROV1 ovarian
  GI50: 2.27 µM
  TGI: > 25.2 µM
CCRF-CEM leukemia
  GI50: 5.01 µM
  TGI: > 100 µM
SK-MEL-5 melanoma
  GI50: 3.37 µM
  TGI: > 62.9 µM
OVCAR-8 ovarian
  GI50: 12.7 µM
  TGI: > 66.9 µM
HCT-116 colon
  GI50: 3.4 µM
  TGI: 20.2 µM
SN12C renal
  GI50: 5.69 µM
  TGI: > 100 µM
EKVX NSCLC
  GI50: 27.6 µM
  TGI: > 100 µM
HOP-62 NSCLC
  GI50: 5.13 µM
  TGI: > 100 µM
LOX IMVI melanoma
  GI50: 8.42 µM
  TGI: > 100 µM
NCI-H23 lung
  GI50: > 30.3 µM
  TGI: > 100 µM
UO-31 renal
  GI50: 18.7 µM
  TGI: > 100 µM
HS 578T breast
  GI50: 19.4 µM
  TGI: > 78.1 µM
HL-60(TB) leukemia
  GI50: 2.1 µM
  TGI: 7.25 µM
PC-3 prostate
  GI50: 12.3 µM
  TGI: > 100 µM
MCF7 breast
  GI50: 1.02 µM
  TGI: > 100 µM
A549 NSCLC
  GI50: 7.65 µM
  TGI: > 100 µM
SW-620 colon
  GI50: 3.06 µM
  TGI: > 100 µM
U251 CNS
  GI50: 4.96 µM
  TGI: > 74.3 µM
SNB-75 CNS
  GI50: 17.7 µM
  TGI: > 74.2 µM
SR leukemia
  GI50: 1.26 µM
  TGI: 5.44 µM
OVCAR-5 ovarian
  GI50: 38.3 µM
  TGI: > 100 µM
COLO 205 colon
  GI50: 3.11 µM
  TGI: > 45.9 µM
M14 melanoma
  GI50: 3.71 µM
  TGI: > 100 µM
MOLT-4 leukemia
  GI50: 4.83 µM
  TGI: > 31.6 µM
SF-268 CNS
  GI50: 52 µM
  TGI: > 100 µM
A498 renal
  GI50: 1.68 µM
  TGI: 9.72 µM
OVCAR-3 ovarian
  GI50: 2.36 µM
  TGI: > 22.8 µM
SNB-19 CNS
  GI50: > 44 µM
  TGI: > 100 µM
SF-295 CNS
  GI50: 3.01 µM
  TGI: > 26.5 µM
BT-549 breast
  GI50: 17.2 µM
  TGI: > 100 µM
786-0 renal
  GI50: 15.1 µM
  TGI: > 100 µM
RXF 393 renal
  GI50: 19.7 µM
  TGI: > 80.9 µM
SF-539 CNS
  GI50: 3.14 µM
  TGI: 17.8 µM
MALME-3M melanoma
  GI50: 5.37 µM
  TGI: > 100 µM
TK-10 renal
  GI50: 6.55 µM
  TGI: > 78.1 µM
NCI-H522 lung
  GI50: 1.85 µM
  TGI: 22 µM
UACC-62 melanoma
  GI50: 2.52 µM
  TGI: 21.2 µM
DU-145 prostate
  GI50: 24.4 µM
  TGI: > 100 µM
